Data as given in patent US20220204971A1, “Compositions and Methods for Inhibiting Cancers and Viruses” (Icahn School of Medicine at Mount Sinai, priority 2018, published 2022).

Experiments:
[1] = tested on: HCMV (TB40-epi); assay: HCMV infectious particle yield from LNA-transfected ARPE-19 epithelial cells, PFU/ml; type: cell-based; conditions: ARPE-19, PFU/ml; 96 hpi
Description: FIG. 26 discloses the effect of HSATII knockdown using four different HSAT-II LNAs on the production of HCMV infectious particles from human retinal pigment cells. Media samples were collected at 96 hpi from ARPE-19 cells transfected with NT-LNA or different HSATII-LNAs 24 h before HCMV (TB40-epi) infection at 1 TCID50/cell. PFU/ml values were determined. Data were averaged from at least three independent experiments and are presented as a mean (SD). Unpaired, two-tailed t-test was used to measure significance. One, two, three or four asterisks represent p<0.05, p<0.01, p<0.001 or p<0.0001, respectively.
Media samples were collected at 96 hpi from ARPE-19 cells transfected with NT-LNA or different HSATII-LNAs 24 h before HCMV (TB40-epi) infection at 1 TCID50/cell. PFU/ml values were determined. Data were averaged from at least three independent experiments and are presented as a mean (SD). […] Cells treated with the combined HSATII-LNA #1 and HSATII-LNA #2 produced only ˜0.6% of intracellular and ˜1% extracellular HCMV viral particles produced by control cells treated with NT-LNA. To compare, cells treated with HSATII-LNA #1 produced ˜33% of intracellular and ˜6% of extracellular HCMV viral particles produced by control cells treated with NT-LNA. Cells treated with HSATII-LNA #2 produced 23% of intracellular and 6% of extracellular HCMV viral particles produced by control cells treated with NT-LNA. Unpaired, two-tailed t-test was used to measure significance. One, two, three or four asterisks represent p<0.05, p<0.01, p<0.001 or p<0.0001, respectively.
Locked nucleic acid oligonucleotides were designed to target identified, highly abundant HSATII transcripts from different chromosomal loci. […] Cells were collected at the indicated time post infection using QIAzol buffer (QIAGEN, Hilden, Germany) and stored at −80° C. until sample processing.

[2] = tested on: HSATII; assay: HSATII RNA RT-qPCR in HCMV-infected HFFs treated with CHX or GCV; type: cell-based, human; conditions: for HSATII levels: HFFs, HCMV 1 TCID50/cell, GCV added after 2 h
Description: FIGS. 2a-d disclose HSATII induction levels in cells infected with active virus as compared to UV-irradiated virus. a HFFs were infected with untreated or UV-irradiated HCMV (TB40/E-GFP) at 3 TCID50/cell, RNA samples were collected at specified times. b HFFs were treated with CHX or DMSO, as a solvent control, 24 h before HCMV (TB40/E-GFP) infection at 1 TCID50/cell. RNA samples were collected at 24 hpi. c HFFs were infected with HCMV (TB40/E-GFP) at 1 TCID50/cell for 2 h and then media was changed for one containing GCV or DMSO as a solvent control. RNA samples were collected at 24 and 48 hpi. d Tetracycline-inducible […] and/or IE2 MRC-5 and ARPE-19 cells were treated with doxycycline. RNA samples were collected at indicated times. a-d RT-qPCR was performed using HSATII-specific primers. GAPDH was used as an internal control. n=3. Data are presented as a fold change mean±SD. a-c ***P<0.001, ****P<0.0001 by the unpaired, two-tailed t-test with (b, c) or without (a) Welch's correction. ns—not significant. Open circles represent single data points.
(§1) Cyclohexamide (Sigma-Aldrich) and ganciclovir (Sigma-Aldrich) were dissolved in DMSO and used at 100 μg ml^−1 or 50 1.1M concentrations, respectively. Doxycycline (Sigma-Aldrich) was dissolved in water and used at 2 μg ml^−1. Puromycin was dissolved in water and used at 1.5 1.1 g ml^−1 (MRC-5) or 21.1 g ml^−1 (ARPE-19). G418 was dissolved in water and used at 800 μg ml-1 (MRC-5) or 1 mg ml-1 G418 (ARPE-19).
For quantitative reverse transcription PCR (qRT-PCR) analysis, cells were collected in QIAzol Lysis Reagent (Qiagen). To fractionate RNA, DNA and proteins chloroform was added; samples were spun at 12,000×g for 15 min. at 4° C. […] Quantitative PCR (qPCR) was performed using SYBR Green master mix (Applied Biosystems by Thermo Fisher Scientific, Foster City, Calif.) on the QuantStudio 6 Flex-Real Time PCR System (Applied Biosystems by Thermo Fisher Scientific). […]
(§2) Transcript levels were analyzed using the […] method and GAPDH or B2M were used as an internal control. […]

[3] = tested on: UL99; assay: UL99 late gene RNA RT-qPCR in HCMV-infected HFFs treated with GCV; type: cell-based; conditions: HCMV 1 TCID50/cell, 48 hpi
Description: FIG. 12 discloses the accumulation of UL99 gene RNA in the presence of DMSO or GCV in infected cells. HFFs were infected with HCMV (TB40/E-GFP; 1 TCID50/cell) for 2 h and then media was changed for one containing GCV or DMSO as a solvent control. RNA samples were collected at 48 hpi. RT-qPCR was performed using UL99-specific primers. GAPDH was used as an internal control. Data were averaged from at least three experiments and are presented as a fold change mean (SD).
as §1
For quantitative reverse transcription PCR (qRT-PCR) analysis, cells were collected in QIAzol Lysis Reagent (Qiagen). […] Quantitative PCR (qPCR) was performed using SYBR Green master mix (Applied Biosystems by Thermo Fisher Scientific, Foster City, Calif.) on the QuantStudio 6 Flex-Real Time PCR System (Applied Biosystems by Thermo Fisher Scientific). […]
as §2

Row | Molecule | extracellular HCMV viral particles, % of those produced by control cells treated with NT-LNA [1] [%] | intracellular HCMV viral particles, % of those produced by control cells treated with NT-LNA [1] [%] | also measured
1 | HSATII-LNA #2: locked nucleic acid oligonucleotide targeting HSATII transcripts, 5′-GATTCCATTCGATGAT-3′ (locked nucleic acid oligonucleotide, LNA positions and linkages not given here) | 6 | 23 | –
2 | Nc1nc(O)c2ncn(COC(CO)CO)c2n1 [ganciclovir] | – | – | HSATII levels ([2]; 24 hpi): did not change; HSATII levels ([2]; 48 hpi): did not change; accumulation of RNA from the late UL99 gene [3]: blocked
3 | HSATII-LNA #1: locked nucleic acid oligonucleotide targeting HSATII transcripts, 5′-CCATTCGATAATTCCG-3′ (locked nucleic acid oligonucleotide, LNA positions and linkages not given here) | ~6 | ~33 | –
4 | C[C@@H]1C[C@@H]([C@H](O)CC2CC(=O)NC(=O)C2)C(=O)[C@@H](C)C1 [Cycloheximide] | – | – | reduction of HSATII accumulation compared to solvent control ([2]; HFFs treated with CHX 24 h before HCMV (TB40/E-GFP) infection at 1 TCID50/cell, 24 hpi): 33 fold
